Experimental data reported in patent US20250304587A1, “WEE1 INHIBITOR, PREPARATION THEREFOR AND USE THEREOF” (JIANGSU TASLY DIYI PHARMACEUTICAL CO., LTD., priority 2022, published 2025).
pIC50: −log10 of the molar value. Read-outs that look alike come from different tables or passages of the source.

Key:
Caco-2 cells = test: Membrane permeability in Caco-2 model; format: in vitro ADME
Method in brief: (§1)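 Caco-2 monolayers grown 21-28 days post-seeding, integrity checked by Lucifer Yellow Papp. Apical and basolateral compound levels measured by LC-MS/MS against a standard curve to derive apparent permeability (Papp).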

plasma protein [1] = test: Plasma protein binding (equilibrium dialysis), mouse; details: mouse plasma, 1 μM, 5 h dialysis
Description: (§5) Sample preparation: The compound was dissolved in DMSO to a stock solution of 10 mM, then the compound was diluted with PBS to a secondary stock solution of 0.02 mM, and then the above 0.02 mM was diluted to 1 μM using blank plasma, which was the sample to be incubated.
(§6) Dialysis set-up preparation: 400 μL of blank PBS was first added to the white wells of the equilibrated dialysis plate and 200 μL of the configured plasma sample was added to the red wells, and the dialysis plate was sealed with a sealing film.
(§7) Recovery plate preparation: Two 96-well deep-well plates, labelled T0 and T5, were prepared and all plasma samples were added at n=2. 300 μL of acetonitrile (Verapamil-HCl, 4 ng/mL) was added directly to the TO plate, followed by 50 μL of blank PBS mix well for 5 min and left to stand in a 4° C. refrigerator until the end of the incubation.
(§8) Experimental Operation: The dialysis device and the T5 plate were incubated together for 5 h in a microplate thermostatic shaker (37° C., using 300 rpm or minimum speed). At the end of the incubation, 300 μL of acetonitrile (Verapamil-HCl, 4 ng/mL) was added and 50 μL of PBS solution was added. At the end of the dialysis incubation, a new 96-well deep well plate was taken. Add 50 μL of plasma well sample to the corresponding position of the 96-well plate, 300 μL of acetonitrile and 50 μL of blank PBS; take 50 μL of buffer well sample to the corresponding position of the 96-well plate, then add 300 μL of acetonitrile and 50 μL of blank plasma. Add 300 μL of acetonitrile (Verapamil-HCl, 4 ng/mL) to the plasma-containing wells of the T5 plate, and then 50 μL of PBS solution was added. Shake for 5 min to fully precipitate the proteins and centrifuge at 20,000 g for 10 min at 4° C. Add 200 μL of supernatant to 200 μL of pure water, mix well and perform LC-MS/MS analysis.
(§9) • Plasma protein binding rate=[(Rpe−Rb)/Rpe]×100% • Recovery=[(Rpe+Rb)/R5 h]×100% • Stability=(R5/R0)×100%
(§10) • Rpe=ratio of plasma-side testing sample peak area to internal standard • Rb=ratio of buffer side testing sample peak area to internal standard • R5=ratio of incubator stability sample peak area to internal standard • R0=ratio of refrigerator stability sample peak area to internal standard

plasma protein [2] = test: Plasma protein binding (equilibrium dialysis), rat; format: in vitro ADME; details: 1 μM, 5 h dialysis
[3] = Toxicity in rats after 14 consecutive days of administration, survival; details: 14 days continuous administration, compared with controls
[4] = Single dose toxicity in rats, maximum tolerated dose
CYP 2B6 = CYP 2B6 (Homo sapiens (Human), UniProt P20813); test: Cytochrome P450 inhibition, CYP2B6; format: in vitro ADME
Chain of CYP 2B6 (P20813 whole entry, canonical isoform): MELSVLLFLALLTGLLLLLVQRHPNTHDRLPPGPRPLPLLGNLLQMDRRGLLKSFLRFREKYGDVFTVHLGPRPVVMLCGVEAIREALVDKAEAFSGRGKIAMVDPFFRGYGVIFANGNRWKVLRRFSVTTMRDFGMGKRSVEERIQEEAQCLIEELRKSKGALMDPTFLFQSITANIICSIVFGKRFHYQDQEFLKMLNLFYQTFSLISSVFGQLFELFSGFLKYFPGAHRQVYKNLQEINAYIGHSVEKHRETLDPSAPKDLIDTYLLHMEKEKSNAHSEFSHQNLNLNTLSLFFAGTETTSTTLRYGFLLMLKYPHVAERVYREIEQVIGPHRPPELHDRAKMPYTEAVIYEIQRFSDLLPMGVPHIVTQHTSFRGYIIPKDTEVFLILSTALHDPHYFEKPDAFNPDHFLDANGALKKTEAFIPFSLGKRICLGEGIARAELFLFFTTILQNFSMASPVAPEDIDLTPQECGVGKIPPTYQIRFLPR
Description: (§2) Enzymatic experiments were performed to quantify the inhibition of CYP450 enzyme activity of each isoform of CYP450 by small molecule inhibitors through fluorescence generated by the oxidation of the substrate by cytochrome P450. […] The Solution B composition used for the experiment was: 40 U/mL G6PDH (Sigma-aldrich, Cat #G6378). The substrate mix was 0.05× Solution A, 0.01× Solution B, 50 mM Potassium Phosphate, 0.01 mM BOMCC/0.01 mM EOMCC/0.001 mM DBOMF. […] The data were analyzed and processed using GraphPad Prism 6 software to obtain IC50 values.

[5] = Membrane permeability in Caco-2 model; format: in vitro ADME; details: human, Caco-2, pH 7.4; Caco2, 10 μM, 90 min
Method in brief: as §1

CYP2C19 = CYP2C19 (Homo sapiens (Human), UniProt P33261); test: Cytochrome P450 inhibition (fluorescence), CYP2C19; format: in vitro ADME; details: read-out: IC50 CYP2C19
Chain of CYP2C19 (P33261 whole entry): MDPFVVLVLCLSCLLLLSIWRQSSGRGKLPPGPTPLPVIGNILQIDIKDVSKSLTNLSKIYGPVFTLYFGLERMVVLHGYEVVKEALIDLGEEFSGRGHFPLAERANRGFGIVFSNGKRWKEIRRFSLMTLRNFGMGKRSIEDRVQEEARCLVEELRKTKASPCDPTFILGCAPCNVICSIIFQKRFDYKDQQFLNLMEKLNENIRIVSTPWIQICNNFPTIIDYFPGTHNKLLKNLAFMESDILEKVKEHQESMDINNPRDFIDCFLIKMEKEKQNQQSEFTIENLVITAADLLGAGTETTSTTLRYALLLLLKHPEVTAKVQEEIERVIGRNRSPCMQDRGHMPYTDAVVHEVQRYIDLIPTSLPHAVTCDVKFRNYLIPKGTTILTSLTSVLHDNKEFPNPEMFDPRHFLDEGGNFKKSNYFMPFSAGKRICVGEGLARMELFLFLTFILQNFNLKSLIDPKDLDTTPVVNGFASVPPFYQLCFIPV
Description: as §2

CYP1A2 = CYP1A2 (Homo sapiens (Human), UniProt P05177); test: Cytochrome P450 inhibition (fluorescence), CYP1A2; format: in vitro ADME; details: read-out: IC50 CYP1A2
Chain of CYP1A2 (P05177 whole entry): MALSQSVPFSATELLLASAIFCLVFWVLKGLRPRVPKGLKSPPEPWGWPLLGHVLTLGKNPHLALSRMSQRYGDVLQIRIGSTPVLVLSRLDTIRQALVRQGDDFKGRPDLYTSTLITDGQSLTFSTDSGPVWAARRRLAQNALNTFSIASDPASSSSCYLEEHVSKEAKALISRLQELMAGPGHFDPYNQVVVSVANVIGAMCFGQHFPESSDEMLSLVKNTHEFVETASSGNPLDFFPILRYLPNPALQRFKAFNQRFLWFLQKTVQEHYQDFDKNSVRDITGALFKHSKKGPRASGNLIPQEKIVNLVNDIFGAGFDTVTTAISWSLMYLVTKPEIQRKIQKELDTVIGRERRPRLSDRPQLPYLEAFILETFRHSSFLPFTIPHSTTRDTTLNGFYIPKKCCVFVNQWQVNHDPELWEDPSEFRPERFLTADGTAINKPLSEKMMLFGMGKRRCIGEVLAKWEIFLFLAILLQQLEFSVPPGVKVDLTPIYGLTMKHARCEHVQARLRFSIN
Description: as §2

[6] = Plasma protein binding (equilibrium dialysis), mouse; details: mouse, plasma
Description: as §5, §6, §7, §8, §9, §10

[7] = Plasma protein binding (equilibrium dialysis), rat; format: in vitro ADME; details: 5 h dialysis, read-out: Plasma Protein binding (PPB) Rat (converted)
[8] = SD, rat, in vivo, 14 days
HUVEC cells = test: Cell Titer-Glo anti-proliferation, normal cells HUVEC; format: cell-based; details: Homo sapiens, HUVEC
Method in brief: (§3)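 Cells were exposed to serial compound concentrations (0.2% DMSO final) for 3 days at 37 °C, 5% CO2, then lysed with Cell Titer-Glo and read by luminescence. Inhibition was referenced to untreated-cell and medium-only controls, and IC50 came from a four-parameter variable-slope log(inhibitor)–response fit.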

HK2 cells = test: Cell Titer-Glo anti-proliferation, normal cells HK2; format: cell-based; details: Homo sapiens, HK-2
Method in brief: as §3

OVCAR-3 cells = test: Cell Titer-Glo anti-proliferation, OVCAR-3 cells; format: cell-based; details: Homo sapiens, OVCAR-3, 72 h, 3 days, read-out: Anti-proliferative activity OVCAR-3 (IC50 class)
Method in brief: (§4)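 Each line was exposed to graded compound concentrations for 3 days at 37 °C, 5% CO2, with final DMSO at 0.2%. Viability was measured by Cell Titer-Glo luminescence, with untreated cells as the maximum and medium as the minimum signal. IC50 came from a variable-slope log(inhibitor)-response fit.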

BxPC3 cells = test: Cell Titer-Glo anti-proliferation, BxPC3 cells; format: cell-based, human; details: Homo sapiens, BXPC-3, 72 h, 3 days, read-out: Anti-proliferative activity BxPC3 (IC50 class)
Method in brief: as §4

CYP2C8 = CYP2C8 (Homo sapiens (Human), UniProt P10632); test: Cytochrome P450 inhibition (fluorescence), CYP2C8; format: in vitro ADME; details: read-out: IC50 CYP2C8
Chain of CYP2C8 (P10632 whole entry): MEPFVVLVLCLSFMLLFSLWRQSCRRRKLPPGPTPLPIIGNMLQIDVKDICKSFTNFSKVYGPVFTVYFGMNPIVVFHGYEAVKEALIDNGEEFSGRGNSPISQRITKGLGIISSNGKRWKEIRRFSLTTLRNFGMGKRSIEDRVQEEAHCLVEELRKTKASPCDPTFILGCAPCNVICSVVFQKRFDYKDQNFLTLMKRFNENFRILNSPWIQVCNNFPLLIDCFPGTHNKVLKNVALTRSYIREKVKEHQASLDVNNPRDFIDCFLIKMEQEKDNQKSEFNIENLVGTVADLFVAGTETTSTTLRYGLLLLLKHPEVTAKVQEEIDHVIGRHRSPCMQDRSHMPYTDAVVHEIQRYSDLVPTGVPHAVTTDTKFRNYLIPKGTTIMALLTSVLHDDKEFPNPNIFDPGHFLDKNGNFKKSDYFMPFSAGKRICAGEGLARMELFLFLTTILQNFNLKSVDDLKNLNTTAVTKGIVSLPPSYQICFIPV
Description: as §2

[9] = female rats, 200 mg/kg by gavage
[10] = female rats, 300 mg/kg by gavage
[11] = female rats, 400 mg/kg by gavage
[12] = female rats, 500 mg/kg by gavage

SMILES: [2H][C@]1(O)c2nc(-n3c4nc(Nc5ccc(N6CCC7(CCN(C)CC7)CC6)cc5)ncc4c(=O)n3CC=C)ccc2CCC12CC2 [Compound 37b]
- Efflux Ration (Caco-2 cells; Caco2): 21.06
- Papp A to B (Caco-2 cells; Caco2, 10 μM, 90 min): 0.46 10^−6 cm/s
- Papp B to A (Caco-2 cells; Caco2, 10 μM, 90 min): 9.69 10^−6 cm/s
- Plasma Protein binding (PPB) Mouse (plasma protein [1]): 92.46%
- Plasma Protein binding (PPB) Rat (plasma protein [2]): 84.10%
- Survival rate of rats (in words) [3]: significantly better than that in the control compound AZD1775 group and the control compound ZnC3 group
- Death Numbers [4, 9]: 0
- Death Rate [4, 9]: 0%
- Death Numbers [4, 10]: 0
- Death Rate [4, 10]: 0%
- Death Numbers [4, 11]: 3
- Death Rate [4, 11]: 60%
- Death Numbers [4, 12]: 2
- Death Rate [4, 12]: 67%
- Death Numbers ([4]; male rats, 200 mg/kg by gavage): 0
- Death Rate ([4]; male rats, 200 mg/kg by gavage): 0%
- Death Numbers ([4]; male rats, 300 mg/kg by gavage): 0
- Death Rate ([4]; male rats, 300 mg/kg by gavage): 0%
- Death Numbers ([4]; male rats, 400 mg/kg by gavage): 2
- Death Rate ([4]; male rats, 400 mg/kg by gavage): 40%
- Death Numbers ([4]; male rats, 500 mg/kg by gavage): 2
- Death Rate ([4]; male rats, 500 mg/kg by gavage): 40%

SMILES: C=CCn1c(=O)c2cnc(Nc3ccc(N4CCN(C)CC4)cc3)nc2n1-c1cccc(C(C)(C)O)n1 [AZD1775, reference compound]
- pIC50 (CYP 2B6): < 5.00
- Papp A→B at 90 min, 10 µM [5]: 0.8 ×10⁻⁶ cm/s
- Papp B→A at 90 min, 10 µM [5]: 15.2 ×10⁻⁶ cm/s
- pIC50 (CYP2C19): 5.00 to 6.00
- pIC50 (CYP1A2): < 5.00
- fraction unbound at 5 h, 1 µM [6]: 0.087
- fraction unbound at 5 h, 1 µM [7]: 0.374
- Survival of Rats ([8]; female, 25 mg/kg): 7/7
- Survival of Rats ([8]; female, 75 mg/kg): 0/7
- Survival of Rats ([8]; male, 25 mg/kg): 7/7
- Survival of Rats ([8]; male, 75 mg/kg): 1/7
- pIC50 (HUVEC cells): < 5.00
- pIC50 (HK2 cells): 6.59
- pIC50 (OVCAR-3 cells): 6.00 to 7.00
- pIC50 (BxPC3 cells): 6.00 to 7.00
- pIC50 (CYP2C8): < 5.00
